Data: patent US9173843B2, “Crystalline active ingredient microparticles, method for producing the same and use thereof in drugs” (Jesalis Pharma GMBH, priority 2008, dated 2015)

Experiments:
[1] = grain size distribution by laser diffraction (Sympatec Helos, RODOS dry disperser); format: physicochemical; conditions: vol. % of particles smaller than value
Experimental: The particle size distribution (grain size distribution) is measured by means of a laser diffraction, which provides a distribution curve of the particle sizes (System Sympatec Helos, RODOS dry disperser). dx means that x volume percent (vol. %) of the particles have a diameter that is smaller than the stated value. Thus, at a d50 value of 1 μm, 50 vol. % of the particles have a diameter smaller than 1 μm (micrometer). When the d10, d99 or d100 is 2 μm, 10, 99 or 100 vol. % of the particles have a diameter smaller than 2 μm.
A 100-ml stirred vessel with blade stirrer is charged with 160 g of Y-stabilized zirconium oxide spheres with a diameter of 0.5 mm plus 30 ml water. A solution of 1.5 g drospirenone in 6.25 ml ethanol/water 4:1 (v/v) is added, with stirring. After precipitation of a mainly amorphous phase, transformation to the crystalline modification begins after approximately 2 min. This is completed after 10 to 15 min. After completion of the phase transformation, a solution of 4.5 g drospirenone in 18.75 ml ethanol/water 4:1 (v/v) and in the same ratio 90 ml water is added dropwise within 15 min, with stirring at 1500 rpm. Simultaneously, with approximately constant filling level, product suspension is drawn off. Addition and product withdrawal can also take place quasicontinuously in smaller portions without any adverse effect on the result, if the above time frame is maintained. After the end of addition, to make the yield complete, approx. 60 ml water is used for rinsing. Alternatively, the suspension in the crystallizer can also be left as starting suspension for the next batch. Altogether, 200 g of suspension is obtained, with a solids content of 25 mg per ml. Approximately 15 ml of this suspension is filtered on a G4 frit and the solid is air-dried. The grain size distribution of the dried substance is determined by laser diffraction (Sympatec Helos, RODOS dispersing system).
Granulometric analysis is carried out by laser diffraction (Sympatec Helos, RODOS dispersing system):
Granulometric analysis was carried out by laser diffraction (Sympatec Helos, RODOS dispersing system, dispersing pressure 5 bar).

[2] = solubility kinetics by the paddle method (dissolved fraction by HPLC); format: physicochemical; conditions: 900 ml water, 37° C., 150 rpm; micronizate pre-dispersed in 2 ml PVP-containing solution
Experimental: 14 mg of the solid form with Methocel E5 as excipient according to Example 2 with a content of active substance of 21.5 wt. % (equivalent to 3 mg drospirenone) is added to 900 ml water, at 37° C. and stirred at 150 rpm with a blade stirrer. A blind sample (starting value) and samples at 5, 10, 20, 30, and 60 min are taken, filtered in a 0.2 μm syringe filter and the dissolved fraction of drospirenone is determined by HPLC. A conventional micronizate (jet mill) serves as comparison. So that the dissolution behavior of the primary grains of the micronizate is assessed exclusively, wetting and agglomeration effects must be avoided. Therefore, before it was added to the 900 ml of water, the micronizate was dispersed in 2 ml of a PVP-containing solution. The process of release of the particles from the solid form and the subsequent process of dissolution are completed after 5 min, whereas with the conventional micronizate, even with perfect wetting and dispersion of the particles, still almost 30% of the active substance is undissolved after 5 min.

Row | SMILES | d16 (grain size distribution) [1] [μm] | d50 (grain size distribution) [1] [μm] | d99 (grain size distribution) [1] [μm] | d100 (grain size distribution) [1] [μm] | active substance undissolved after 5 min [2] [%]
1 | C[C@]12CCC(=O)C=C1[C@@H]1C[C@@H]1[C@H]1[C@@H]3[C@@H]4C[C@@H]4[C@@]4(CCC(=O)O4)[C@@]3(C)CC[C@@H]12 [Example 1, drospirenone] | 0.52 | 1.48 | 4.63 | 6.00 | –
2 | C[C@]12CCC(=O)C=C1[C@@H]1C[C@@H]1[C@H]1[C@@H]3[C@@H]4C[C@@H]4[C@@]4(CCC(=O)O4)[C@@]3(C)CC[C@@H]12 [conventional micronizate, drospirenone] | – | – | – | – | ~30
